Columns and labels:
5HT [1] = settings: 200 mg/kg i.p. qid for 3 days; cited from earlier work
cholangiocarcinoma = settings: xenograft model of cholangiocarcinoma; cited from earlier work
human TPH1 = human TPH1 (Homo sapiens (Human), UniProt P17752); test: Biochemical in vitro assay using fluorescence readout (TPH1 inhibition); settings: human TPH1, fluorescence readout
5HT [2] = settings: mice; cited from earlier work
5HT / 5HIAA = settings: phase IIA study, qid; cited from earlier work
5HT [3] = settings: in vivo; cited from earlier work

human TPH1, sequence (P17752 whole entry): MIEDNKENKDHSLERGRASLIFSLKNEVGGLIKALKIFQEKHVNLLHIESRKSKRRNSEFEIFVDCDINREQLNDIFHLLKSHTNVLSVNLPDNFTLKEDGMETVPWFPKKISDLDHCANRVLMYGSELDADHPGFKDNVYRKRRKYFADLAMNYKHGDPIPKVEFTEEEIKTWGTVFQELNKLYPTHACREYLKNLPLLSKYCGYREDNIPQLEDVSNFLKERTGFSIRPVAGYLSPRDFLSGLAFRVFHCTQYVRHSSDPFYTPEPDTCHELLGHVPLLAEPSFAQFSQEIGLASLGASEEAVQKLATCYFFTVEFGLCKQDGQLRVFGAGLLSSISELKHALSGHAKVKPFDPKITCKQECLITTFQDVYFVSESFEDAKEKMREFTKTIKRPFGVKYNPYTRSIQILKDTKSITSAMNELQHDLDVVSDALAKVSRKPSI

Row | Compound | IC50 (human TPH1) | further results
1 | N[C@@H](Cc1ccc(Cl)cc1)C(=O)O (racemic) [PCA, p-chlorophenylalanine] | – | 5HT in the brain (5HT [1]): ~20 % original; 5HT in the gut (5HT [1]): ~50 % original; tumor volume (cholangiocarcinoma): dramatic reduction in tumor volume
2 | CCc1nc(NS(C)(=O)=O)ccc1OCC(=O)N1CCc2nc3sc(CF)nn3c2C1c1ccc(Cl)cc1F (stereo not drawn) [Example 7.1.2, N-(5-(2-(5-(4-chloro-2-fluorophenyl)-2-(fluoromethyl)-7,8-dihydro-[1,3,4]thiadiazolo[2′,3′:2,3]imidazo[4,5-c]pyridin-6(5H)-yl)-2-oxoethoxy)-6-ethylpyridin-2-yl)methanesulfonamide] | 8 nM | –
3 | CCc1nc(N2CCCS2(=O)=O)ccc1OCC(=O)N1CCc2nc3sc(CF)nn3c2C1c1ccc(Cl)cc1F (stereo not drawn) [Example 7.1.3, 1-(5-(4-chloro-2-fluorophenyl)-2-(fluoromethyl)-7,8-dihydro-[1,3,4]thiadiazolo[2′,3′:2,3]imidazo[4,5-c]pyridin-6(5H)-yl)-2-((6-(1,1-dioxidoisothiazolidin-2-yl)-2-ethylpyridin-3-yl)oxy)ethan-1-one] | 6 nM | –
4 | CCc1nc(N2CCCS2(=O)=O)ccc1OCC(=O)N1CCc2nc3sc(CF)nn3c2C1c1ncc(C)cc1F (stereo not drawn) [Example 7.2.1, 2-((6-(1,1-dioxidoisothiazolidin-2-yl)-2-ethylpyridin-3-yl)oxy)-1-(5-(3-fluoro-5-methylpyridin-2-yl)-2-(fluoromethyl)-7,8-dihydro-[1,3,4]thiadiazolo[2′,3′:2,3]imidazo[4,5-c]pyridin-6(5H)-yl)ethanone] | 9 nM | –
5 | CCc1nc(NS(C)(=O)=O)ccc1OCC(=O)N1CCc2nc3sc(CF)nn3c2C1c1ncc(C)cc1F (stereo not drawn) [Example 7.2.2, N-(6-ethyl-5-(2-(5-(3-fluoro-5-methylpyridin-2-yl)-2-(fluoromethyl)-7,8-dihydro-[1,3,4]thiadiazolo[2′,3′:2,3]imidazo[4,5-c]pyridin-6(5H)-yl)-2-oxoethoxy)pyridin-2-yl)methanesulfonamide] | 20 nM | –
6 | Cc1ccc(C2c3c(nc4sc(CF)nn34)CCN2C(=O)COc2ccc(NS(C)(=O)=O)nc2Cl)c(F)c1 (stereo not drawn) [Example 7.3.1, N-(6-chloro-5-(2-(5-(2-fluoro-4-methylphenyl)-2-(fluoromethyl)-7,8-dihydro-[1,3,4]thiadiazolo[2′,3′:2,3]imidazo[4,5-c]pyridin-6(5H)-yl)-2-oxoethoxy)pyridin-2-yl)methanesulfonamide] | 8 nM | –
7 | CCc1nc(NS(C)(=O)=O)ccc1OCC(=O)N1CCc2nc3sc(CF)nn3c2C1c1ccc(C)cc1F (stereo not drawn) [Example 7.3.2, N-(6-ethyl-5-(2-(5-(2-fluoro-4-methylphenyl)-2-(fluoromethyl)-7,8-dihydro-[1,3,4]thiadiazolo[2′,3′:2,3]imidazo[4,5-c]pyridin-6(5H)-yl)-2-oxoethoxy)pyridin-2-yl)methanesulfonamide] | 12 nM | –
8 | CCc1nc(C(=O)NC2CC2)ccc1OCC(=O)N1CCc2nc3sc(CF)nn3c2C1c1sc(C)nc1C (stereo not drawn) [Example 7.4.1, N-cyclopropyl-5-(2-(5-(2,4-dimethylthiazol-5-yl)-2-(fluoromethyl)-7,8-dihydro-[1,3,4]thiadiazolo[2′,3′:2,3]imidazo[4,5-c]pyridin-6(5H)-yl)-2-oxoethoxy)-6-ethylpicolinamide] | 7 nM | –
9 | CCc1nc(NS(C)(=O)=O)ccc1OCC(=O)N1CCc2nc3sc(CF)nn3c2C1c1sc(C)nc1C (stereo not drawn) [Example 7.4.2, N-(5-(2-(5-(2,4-dimethylthiazol-5-yl)-2-(fluoromethyl)-7,8-dihydro-[1,3,4]thiadiazolo[2′,3′:2,3]imidazo[4,5-c]pyridin-6(5H)-yl)-2-oxoethoxy)-6-ethylpyridin-2-yl)methanesulfonamide] | 7 nM | –
10 | CCc1nc(N2CCCS2(=O)=O)ccc1OCC(=O)N1CCc2nc3sc(CF)nn3c2C1c1sc(C)nc1C (stereo not drawn) [Example 7.4.3, 1-(5-(2,4-dimethylthiazol-5-yl)-2-(fluoromethyl)-7,8-dihydro-[1,3,4]thiadiazolo[2′,3′:2,3]imidazo[4,5-c]pyridin-6(5H)-yl)-2-((6-(1,1-dioxidoisothiazolidin-2-yl)-2-ethylpyridin-3-yl)oxy)ethanone] | 8 nM | –
11 | CS(=O)(=O)Nc1ccc(OCC(=O)N2CCc3nc4sc(C(F)F)nn4c3C2c2ccc(Cl)cc2F)c(Cl)n1 (stereo not drawn) [Example 8.1.1, N-(6-chloro-5-(2-(5-(4-chloro-2-fluorophenyl)-2-(difluoromethyl)-7,8-dihydro-[1,3,4]thiadiazolo-[2′,3′:2,3]imidazo[4,5-c]pyridin-6(5H)-yl)-2-oxoethoxy)pyridin-2-yl)methanesulfonamide] | 19 nM | –
12 | CCc1nc(NS(C)(=O)=O)ccc1OCC(=O)N1CCc2nc3sc(C(F)F)nn3c2C1c1ccc(Cl)cc1F (stereo not drawn) [Example 8.1.2, N-(5-(2-(5-(4-chloro-2-fluorophenyl)-2-(difluoromethyl)-7,8-dihydro-[1,3,4]thiadiazolo[2′,3′:2,3]imidazo[4,5-c]pyridin-6(5H)-yl)-2-oxoethoxy)-6-ethylpyridin-2-yl)methanesulfonamide] | 10 nM | –
13 | CCc1nc(N2CCCS2(=O)=O)ccc1OCC(=O)N1CCc2nc3sc(C(F)F)nn3c2C1c1ccc(Cl)cc1F (stereo not drawn) [Example 8.1.3, 1-(5-(4-chloro-2-fluorophenyl)-2-(difluoromethyl)-7,8-dihydro-[1,3,4]thiadiazolo[2′,3′:2,3]imidazo[4,5-c]pyridin-6(5H)-yl)-2-((6-(1,1-dioxidoisothiazolidin-2-yl)-2-ethylpyridin-3-yl)oxy)ethanone] | 7 nM | –
14 | CS(=O)(=O)Nc1ccc(OCC(=O)N2CCc3nc4sc(C(F)F)nn4c3[C@@H]2c2ccc(Cl)cc2F)c(Cl)n1 [Example 8.1.4] | 12 nM | –
15 | Cc1ccc(C2c3c(nc4sc(C(F)F)nn34)CCN2C(=O)COc2ccc(NS(C)(=O)=O)nc2Cl)c(F)c1 (stereo not drawn) [Example 8.2.1, N-(6-chloro-5-(2-(2-(difluoromethyl)-5-(2-fluoro-4-methylphenyl)-7,8-dihydro-[1,3,4]thiadiazolo[2′,3′:2,3]imidazo[4,5-c]pyridin-6(5H)-yl)-2-oxoethoxy)pyridin-2-yl)methanesulfonamide] | 24 nM | –
16 | CCc1nc(C(=O)NC2CC2)ccc1OCC(=O)N1CCc2nc3sc(C(F)F)nn3c2C1c1sc(C)nc1C (stereo not drawn) [Example 8.3.1, N-cyclopropyl-5-(2-(2-(difluoromethyl)-5-(2,4-dimethylthiazol-5-yl)-7,8-dihydro-[1,3,4]thiadiazolo[2′,3′:2,3]imidazo[4,5-c]pyridin-6(5H)-yl)-2-oxoethoxy)-6-ethylpicolinamide] | 11 nM | –
17 | CCc1nc(N2CCCS2(=O)=O)ccc1OCC(=O)N1CCc2nc3sc(C(F)F)nn3c2C1c1sc(C)nc1C (stereo not drawn) [Example 8.3.2, 1-(2-(difluoromethyl)-5-(2,4-dimethylthiazol-5-yl)-7,8-dihydro-[1,3,4]thiadiazolo[2′,3′:2,3]imidazo[4,5-c]pyridin-6(5H)-yl)-2-((6-(1,1-dioxidoisothiazolidin-2-yl)-2-ethylpyridin-3-yl)oxy)ethanone] | 13 nM | –
18 | Nc1nc(OC(c2ccc(-c3cccc(F)c3)cc2)C(F)(F)F)cc(-c2ccc(C[C@H](N)C(=O)O)cc2)n1 (stereo partly drawn) [LP533401] | – | brain 5HT concentrations (5HT [2]): without effecting brain concentrations; gut 5HT (5HT [2]): lower gut 5HT
19 | COc1cccc(-c2ccc([C@@H](Oc3cc(-c4ccc(C[C@H](N)C(=O)O)cc4)nc(N)n3)C(F)(F)F)cc2)c1 [LX1031, (S)-2-Amino-3-(4-{2-amino-6-[(R)-2,2,2-trifluoro-1-(3′-methoxy-biphenyl-4-yl)-ethoxy]-pyrimidin-4-yl}-phenyl)-propionic acid] | – | blood 5HT (5HT / 5HIAA): did not affect blood 5HT; urinary 5HIAA reduction (5HT / 5HIAA): up to 30%; 5HT in the colon (5HT [3]): only a minor reduction; 5HT in the jejunum (5HT [3]): lowers 5HT in the jejunum; brain 5HT (5HT [3]): no effect on brain 5HT
20 | N-(5-(2-(5-(4-(aminomethyl)-2-fluorophenyl)-2-methyl-7,8-dihydro-[1,3,4]thiadiazolo[2′,3′:2,3]imidazo[4,5-c]pyridin-6(5H)-yl)-2-oxoethoxy)-6-chloropyridin-2-yl)methanesulfonamide [Example 1.78.1] | 10 nM | –
